Counter-ions that a name gives are not always drawn.
How the values were obtained:
[1] = target: T1, NR1-2C NMDAR (Homo sapiens, UniProt Q05586+Q14957); assay: Whole-cell manual patch-clamp REL-1017 CRC in 1 mM MgCl2; details: 1 mM MgCl2, 1 μM L-glutamate, −60 mV
[2] = target: NR1-2B NMDAR (Homo sapiens, UniProt Q05586+Q13224); assay: Whole-cell automated patch-clamp (QPatch) in 1 mM Mg2+; assay type: cell-based; set-up: host or cells: CHO (CHO-hNR1-h2B), constitutive expression; details: 1 mM Mg2+
Experimental: (§1) Data were obtained in automated patch-clamp platform. […] Statistical results of one-way analysis of variance (ANOVA) followed by Tukey’s multiple comparisons test also reported p < 0.05 (*), p < 0.01 (**), p < 0.001 (***), and p < 0.0001 (****). Glu is glutamate.
(§2) For QPatch experiments, cells were grown in T-flasks first at 37 °C, 5% CO2 for 3 to 4 h, then at 30 °C, 5% CO2 for 18 to 24 h in DMEM/F12 medium with added 500 μM ketamine and 10 μg/mL tetracycline (except for NR1-2B-CHO cells) without additional antibiotics. Cells were manually detached from the culture dish and automatically dispensed in QPatch wells with extracellular solution in the presence of 1 mM Mg^2+ and 500 μM ketamine.
(§3) Holding potential was −80 mV, and voltage protocol included a depolarizing 2-s step pulse to +60 mV to check the quality of the seal and cell NMDAR expression level, followed by a 2-s ramp-up to holding potential.

[3] = target: T1, NR1-2C NMDAR; assay: as above; assay type: cell-based; set-up: host or cells: CHO (CHO-hN1-h2C), tetracycline-induced expression; details: 1 mM Mg2+
Experimental: as §1, §2, §3

[4] = target: NR1-2D NMDAR (Homo sapiens, UniProt O15399+Q05586); assay: as above; assay type: cell-based; set-up: host or cells: CHO (CHO-hN1-h2D), tetracycline-induced expression; details: 1 mM Mg2+, −30 mV to −80 mV
Experimental: as §1, §2, §3

[5] = target: NR1-2A NMDAR (Homo sapiens, UniProt Q05586+Q12879); assay: as above; assay type: cell-based; set-up: host or cells: CHO (CHO-hNR1-h2A), tetracycline-induced expression; details: 1 mM Mg2+
Experimental: as §1, §2, §3

[6] = 10 μM REL-1017, 1 μM L-glutamate
[7] = 10 μM REL-1017, 10 μM L-glutamate

T1 sequence (Q14957 20-1233, other chains not shown): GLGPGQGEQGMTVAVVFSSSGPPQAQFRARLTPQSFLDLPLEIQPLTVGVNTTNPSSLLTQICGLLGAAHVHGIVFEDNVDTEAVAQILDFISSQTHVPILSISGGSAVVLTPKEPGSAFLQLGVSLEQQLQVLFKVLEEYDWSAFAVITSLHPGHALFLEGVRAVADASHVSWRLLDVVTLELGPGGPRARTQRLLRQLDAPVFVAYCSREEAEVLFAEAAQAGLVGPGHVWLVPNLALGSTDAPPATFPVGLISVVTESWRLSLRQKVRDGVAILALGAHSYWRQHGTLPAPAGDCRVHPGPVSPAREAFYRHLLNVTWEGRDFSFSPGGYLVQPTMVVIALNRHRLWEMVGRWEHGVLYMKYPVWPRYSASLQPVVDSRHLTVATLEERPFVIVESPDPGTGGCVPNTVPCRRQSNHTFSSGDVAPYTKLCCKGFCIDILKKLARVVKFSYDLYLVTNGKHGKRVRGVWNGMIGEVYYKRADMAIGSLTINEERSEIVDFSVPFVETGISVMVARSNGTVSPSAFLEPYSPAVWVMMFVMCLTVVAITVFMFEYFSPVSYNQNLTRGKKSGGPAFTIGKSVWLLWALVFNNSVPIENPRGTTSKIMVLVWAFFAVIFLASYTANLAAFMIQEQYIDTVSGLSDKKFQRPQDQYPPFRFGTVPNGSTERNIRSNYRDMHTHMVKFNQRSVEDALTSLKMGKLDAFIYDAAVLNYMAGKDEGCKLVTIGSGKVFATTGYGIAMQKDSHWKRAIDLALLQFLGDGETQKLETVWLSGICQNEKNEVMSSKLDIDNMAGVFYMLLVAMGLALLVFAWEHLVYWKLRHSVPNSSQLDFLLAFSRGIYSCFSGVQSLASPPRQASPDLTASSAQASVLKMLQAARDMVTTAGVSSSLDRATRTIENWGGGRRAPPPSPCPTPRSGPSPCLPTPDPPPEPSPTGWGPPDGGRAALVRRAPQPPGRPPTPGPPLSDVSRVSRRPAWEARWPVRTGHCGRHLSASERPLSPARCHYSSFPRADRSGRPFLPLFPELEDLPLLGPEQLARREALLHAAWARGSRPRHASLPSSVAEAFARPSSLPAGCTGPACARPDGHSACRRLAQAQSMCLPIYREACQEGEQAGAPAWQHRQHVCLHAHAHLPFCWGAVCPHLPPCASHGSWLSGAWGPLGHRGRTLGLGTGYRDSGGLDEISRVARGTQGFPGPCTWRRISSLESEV
Sequence of NR1-2A NMDAR (Q12879 23-1464, other chains not shown): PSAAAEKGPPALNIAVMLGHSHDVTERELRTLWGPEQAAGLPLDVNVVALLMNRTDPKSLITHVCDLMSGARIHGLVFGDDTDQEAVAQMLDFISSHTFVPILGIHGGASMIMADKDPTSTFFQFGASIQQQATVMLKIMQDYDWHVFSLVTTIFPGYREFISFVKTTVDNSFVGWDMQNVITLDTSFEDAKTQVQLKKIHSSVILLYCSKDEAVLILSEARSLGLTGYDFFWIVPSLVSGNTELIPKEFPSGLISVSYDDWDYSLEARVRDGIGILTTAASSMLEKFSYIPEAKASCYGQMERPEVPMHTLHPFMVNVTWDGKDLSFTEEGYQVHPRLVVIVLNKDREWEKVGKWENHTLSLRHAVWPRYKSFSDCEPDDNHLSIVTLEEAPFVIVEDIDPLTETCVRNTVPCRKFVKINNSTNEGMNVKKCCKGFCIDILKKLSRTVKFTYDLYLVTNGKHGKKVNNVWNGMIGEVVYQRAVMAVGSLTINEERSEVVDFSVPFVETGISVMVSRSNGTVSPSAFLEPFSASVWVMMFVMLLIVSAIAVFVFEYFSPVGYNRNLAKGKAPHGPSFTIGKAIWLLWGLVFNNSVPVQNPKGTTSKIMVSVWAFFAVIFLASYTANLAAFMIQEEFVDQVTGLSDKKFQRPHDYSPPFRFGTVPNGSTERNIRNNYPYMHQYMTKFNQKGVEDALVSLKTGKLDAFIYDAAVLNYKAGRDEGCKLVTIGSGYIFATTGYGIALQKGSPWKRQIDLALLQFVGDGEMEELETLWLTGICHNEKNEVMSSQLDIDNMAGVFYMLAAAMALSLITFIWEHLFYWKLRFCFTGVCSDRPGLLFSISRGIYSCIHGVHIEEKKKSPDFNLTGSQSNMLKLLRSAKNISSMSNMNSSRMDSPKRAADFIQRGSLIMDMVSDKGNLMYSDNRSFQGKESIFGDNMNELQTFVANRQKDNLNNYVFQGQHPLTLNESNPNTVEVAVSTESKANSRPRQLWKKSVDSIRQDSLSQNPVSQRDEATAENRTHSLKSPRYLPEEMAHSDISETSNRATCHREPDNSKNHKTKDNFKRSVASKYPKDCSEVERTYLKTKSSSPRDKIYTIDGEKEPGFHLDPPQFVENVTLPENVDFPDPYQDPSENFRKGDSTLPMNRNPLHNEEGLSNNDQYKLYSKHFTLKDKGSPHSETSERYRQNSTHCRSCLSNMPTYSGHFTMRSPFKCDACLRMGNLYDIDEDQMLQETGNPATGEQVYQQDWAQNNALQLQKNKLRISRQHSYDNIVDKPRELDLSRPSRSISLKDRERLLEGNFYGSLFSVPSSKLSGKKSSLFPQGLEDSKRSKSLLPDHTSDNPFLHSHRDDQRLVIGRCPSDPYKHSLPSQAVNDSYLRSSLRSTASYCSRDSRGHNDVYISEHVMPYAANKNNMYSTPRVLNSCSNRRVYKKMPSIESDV
Sequence of NR1-2D NMDAR (O15399 28-1336, other chains not shown): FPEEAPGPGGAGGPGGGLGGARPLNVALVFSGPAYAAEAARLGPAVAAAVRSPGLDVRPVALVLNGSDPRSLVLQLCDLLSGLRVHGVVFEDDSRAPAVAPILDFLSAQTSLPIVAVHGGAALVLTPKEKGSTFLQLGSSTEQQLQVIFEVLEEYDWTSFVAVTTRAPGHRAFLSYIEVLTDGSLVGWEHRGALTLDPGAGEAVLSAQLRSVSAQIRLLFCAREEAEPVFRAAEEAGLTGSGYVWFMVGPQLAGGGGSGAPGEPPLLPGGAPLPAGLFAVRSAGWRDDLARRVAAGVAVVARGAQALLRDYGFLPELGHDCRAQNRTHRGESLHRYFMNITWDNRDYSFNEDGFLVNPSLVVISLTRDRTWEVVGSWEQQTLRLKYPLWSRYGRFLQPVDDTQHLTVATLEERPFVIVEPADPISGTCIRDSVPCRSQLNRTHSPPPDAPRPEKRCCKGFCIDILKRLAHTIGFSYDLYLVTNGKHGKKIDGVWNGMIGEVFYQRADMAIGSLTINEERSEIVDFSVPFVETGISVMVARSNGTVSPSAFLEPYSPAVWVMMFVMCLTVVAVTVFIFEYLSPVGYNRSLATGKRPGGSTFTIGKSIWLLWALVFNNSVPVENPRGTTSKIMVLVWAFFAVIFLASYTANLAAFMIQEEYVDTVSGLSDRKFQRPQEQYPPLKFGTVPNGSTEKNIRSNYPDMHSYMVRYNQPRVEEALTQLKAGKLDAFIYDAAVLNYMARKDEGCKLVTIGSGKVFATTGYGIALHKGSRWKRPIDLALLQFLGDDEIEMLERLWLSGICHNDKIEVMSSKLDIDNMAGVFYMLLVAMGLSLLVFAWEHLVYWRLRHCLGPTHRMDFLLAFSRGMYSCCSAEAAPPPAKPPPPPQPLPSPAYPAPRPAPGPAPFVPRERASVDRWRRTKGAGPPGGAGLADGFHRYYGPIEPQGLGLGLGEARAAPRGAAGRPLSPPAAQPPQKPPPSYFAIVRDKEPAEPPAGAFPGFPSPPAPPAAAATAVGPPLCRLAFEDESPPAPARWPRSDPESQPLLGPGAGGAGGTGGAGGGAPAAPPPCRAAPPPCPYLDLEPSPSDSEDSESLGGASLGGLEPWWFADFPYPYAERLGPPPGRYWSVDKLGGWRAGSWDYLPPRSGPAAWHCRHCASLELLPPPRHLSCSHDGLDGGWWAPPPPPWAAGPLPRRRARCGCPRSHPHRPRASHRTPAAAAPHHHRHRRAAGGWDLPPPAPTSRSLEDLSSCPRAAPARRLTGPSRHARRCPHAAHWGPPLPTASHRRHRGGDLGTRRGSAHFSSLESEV

## CCC(=O)C(C[C@H](C)N(C)C)(c1ccccc1)c1ccccc1 [REL-1017, dextromethadone HCl]
[1]
  Hill Slope: 1.49
[2]; [6]
  effect on L-glutamate-elicited current: inactive
[2]; [7]
  effect on L-glutamate-elicited current: significantly reduced the elicited current only at −30 mV, −40 mV, and −50 mV
[3]; [6]
  effect on L-glutamate-elicited current: inactive
[3]; [7]
  effect on L-glutamate-elicited current: inactive
[4]; [6]
  effect on L-glutamate-elicited current: significantly reduced
[4]; [7]
  effect on L-glutamate-elicited current: significantly reduced
[5]; [6]
  effect on L-glutamate-elicited current: inactive
[5]; 10 μM REL-1017, 10 μM L-glutamate, −30 mV to −80 mV
  effect on L-glutamate-elicited current: significantly reduced

— publication PMC9414551 (Pharmaceuticals, 2022)
